Reference: ChEMBL document CHEMBL1124302, “Nucleoside conjugates. 10. Synthesis and antitumor activity of 1-beta-D-arabinofuranosylcytosine 5'-diphosphate-1,2-dipalmitins” (J Med Chem, 1988)
Values joined by “and” are separate entries in the source; they are usually repeats but may differ in a detail not shown here. Equal values may be shown once.

How the values were obtained:
Assay type in all cases: functional
Mus musculus [1] = organism: Mus musculus; experiment: Percentage increase in life span after 17-29 days
Mus musculus [2] = organism: Mus musculus; experiment: Percentage increase in life span after 17-35 days
Mus musculus [3] = experiment: No of survivors after 45 days ata dose of 400 mg/kg/day
Mus musculus [4] = experiment: No of survivors after 45 days ata dose of 80 mg/kg/day
Mus musculus [5] = experiment: Weight change on day 8 in L1210/ara-C (I) Lymphoid Leukemia in mice( ip implanted) at a dose of 80 mg/kg/day (qd=1-5); conditions: route intraperitoneal
Mus musculus [6] = experiment: Weight change on day 8 in L1210/ara-C (I) Lymphoid Leukemia in mice( ip implanted) at a dose of 400 mg/kg/day (qd=1); conditions: route intraperitoneal
Mus musculus [7] = organism: Mus musculus; experiment: Percentage increase in life span after 8->45 days
Mus musculus [8] = organism: Mus musculus; experiment: Percentage increase in life span after 8-9 days
Mus musculus [9] = organism: Mus musculus; experiment: Percentage increase in life span after 29->45 days
Mus musculus [10] = organism: Mus musculus; experiment: Percentage increase in life span after 35->45 days
Mus musculus [11] = organism: Mus musculus; experiment: Percentage increase in life span after 7-8 days
Mus musculus [12] = experiment: No of survivors after 45 dose ata dose of 300 mg/kg/day
Mus musculus [13] = experiment: No of survivors after 45 dose ata dose of 60 mg/kg/day
Mus musculus [14] = organism: Mus musculus; experiment: Dose producing greatest increase in life span expressed as optimum dose (L1210/ara-C I) (qd 1,5,9)
Mus musculus [15] = experiment: No of survivors after 45 days ata dose of 300 60 mg/kg/day
Mus musculus [16] = experiment: No of survivors after 45 days ata dose of 300 mg/kg/day
Mus musculus [17] = experiment: No of survivors after 45 dose ata dose of 133 mg/kg/day
Mus musculus [18] = organism: Mus musculus; experiment: Dose producing greatest increase in life span expressed as optimum dose (L1210/ara-C II) (qd 1)
Mus musculus [19] = experiment: Weight change on day 8 in L1210/ara-C (I) Lymphoid Leukemia in mice( ip implanted) at a dose of 133 mg/kg/day (qd=1,5,9); conditions: route intraperitoneal
Mus musculus [20] = experiment: Weight change on day 8 in L1210/ara-C (I) Lymphoid Leukemia in mice( ip implanted) at a dose of 300 mg/kg/day (qd=1); conditions: route intraperitoneal
Mus musculus [21] = experiment: Weight change on day 8 in L1210/ara-C (I) Lymphoid Leukemia in mice( ip implanted) at a dose of 60 mg/kg/day (qd=1-5); conditions: route intraperitoneal
Mus musculus [22] = organism: Mus musculus; experiment: Percentage increase in life span after 9-11 days
Mus musculus [23] = organism: Mus musculus; experiment: Percentage increase in life span after 7-14 days
Mus musculus [24] = experiment: No of survivors after 45 days ata dose of 19 and 38 mg/kg/day
Mus musculus [25] = experiment: No of survivors after 45 days ata dose of 95 and 190 mg/kg/day
Mus musculus [26] = experiment: Weight change on day 8 in L1210/ara-C (I) Lymphoid Leukemia in mice( ip implanted) at a dose of 19 and 38 mg/kg/day (qd=1-5); conditions: route intraperitoneal
Mus musculus [27] = experiment: Weight change on day 8 in L1210/ara-C (I) Lymphoid Leukemia in mice( ip implanted) at a dose of 95 and 190 mg/kg/day (qd=1); conditions: route intraperitoneal
Mus musculus [28] = organism: Mus musculus; experiment: Percentage increase in life span after 10 days
Mus musculus [29] = organism: Mus musculus; experiment: Percentage increase in life span after 11-12 days
Mus musculus [30] = experiment: Weight change on day 8 in L1210/ara-C (I) Lymphoid Leukemia in mice( ip implanted) at a dose of 95 and 190 mg/kg/day; conditions: route intraperitoneal
Mus musculus [31] = experiment: weight change on day 8 in L1210/ara-C (I) Lymphoid Leukemia in mice( ip implanted) at a dose of 19 and 38 mg/kg/day; conditions: route intraperitoneal
Mus musculus [32] = organism: Mus musculus; experiment: Percentage increase in life span after 9-12 days
Mus musculus [33] = organism: Mus musculus; experiment: Percentage increase in life span after 12-13days
Mus musculus [34] = organism: Mus musculus; experiment: Percentage increase in life span after 13-15 days
Mus musculus [35] = experiment: No of survivors after 45 days ata dose of 60 mg/kg/day
Mus musculus [36] = experiment: No of survivors after 45 days at a dose of 400 mg/kg/day
Mus musculus [37] = experiment: weight change on day 8 in L1210/ara-C (I) Lymphoid Leukemia in mice( ip implanted) at a dose of 60 mg/kg/day (qd=1-5); conditions: route intraperitoneal
Mus musculus [38] = experiment: weight change on day 8 in L1210/ara-C (I) Lymphoid Leukemia in mice( ip implanted) at a dose of 100 mg/kg/day (qd=1,5,9); conditions: route intraperitoneal
Mus musculus [39] = experiment: No of survivors after 45 days ata dose of 100 mg/kg/day
Mus musculus [40] = organism: Mus musculus; experiment: Percentage increase in life span after 15-18 days
Mus musculus [41] = organism: Mus musculus; experiment: Percentage increase in life span after 17-21 days
Mus musculus [42] = organism: Mus musculus; experiment: Percentage increase in life span after 7 days
Mus musculus [43] = organism: Mus musculus; experiment: Dose producing greatest increase in life span expressed as optimum dose (L1210/ara-C I) (qd 1)
Mus musculus [44] = organism: Mus musculus; experiment: Dose producing greatest increase in life span expressed as optimum dose (L1210/ara-C I) (qd 1-15)
Mus musculus [45] = organism: Mus musculus; experiment: Dose producing greatest increase in life span expressed as optimum dose (L1210/ara-C I) (qd 1-5)
Mus musculus [46] = experiment: (§1) No of survivors after 45 days at a dose of 100 mg/kg/day
Mus musculus [47] = experiment: as §1; remark: listed apart in the source
Mus musculus [48] = experiment: (§2) No of survivors after 45 days at a dose of 200 mg/kg/day
Mus musculus [49] = experiment: as §2; remark: listed apart in the source
Mus musculus [50] = experiment: No of survivors after 45 days at a dose of 300 mg/kg/day
Mus musculus [51] = experiment: (§3) No of survivors after 45 days at a dose of 60 mg/kg/day
Mus musculus [52] = experiment: as §3; remark: listed apart in the source
Mus musculus [53] = organism: Mus musculus; experiment: Dose producing greatest increase in life span expressed as optimum dose (L1210/ara-C I) (qd 1-9)
Mus musculus [54] = organism: Mus musculus; experiment: Dose producing greatest increase in life span expressed as optimum dose (L1210/ara-C II) (qd 1-5)
Mus musculus [55] = experiment: Weight change on day 8 in L1210/ara-C (I) Lymphoid Leukemia in mice( ip implanted) at a dose of 100 mg/kg/day (qd=1,5,9); conditions: route intraperitoneal
Mus musculus [56] = experiment: Weight change on day 8 in L1210/ara-C (I) Lymphoid Leukemia in mice( ip implanted) at a dose of 200 mg/kg/day (qd=1); conditions: route intraperitoneal
Mus musculus [57] = experiment: Weight change on day 8 in L1210/ara-C (I) Lymphoid Leukemia in mice( ip implanted) at a dose of 60 mg/kg/day (qd=1-15); conditions: route intraperitoneal
Mus musculus [58] = experiment: Weight change on day 8 in L1210/ara-C (I) Lymphoid Leukemia in mice( ip implanted) at a dose of 60 mg/kg/day (qd=1-9); conditions: route intraperitoneal

SMILES: CCCCCCCCCCCCCCCC(=O)OC[C@@H](COP(=O)(O)OP(=O)(O)OC[C@H]1O[C@@H](n2ccc(N)nc2=O)[C@@H](O)[C@@H]1O)OC(=O)CCCCCCCCCCCCCCC
- ILS (Mus musculus [1]): 121%
- ILS (Mus musculus [2]): 100%
- No. of survivors (Mus musculus [3]): 0
- No. of survivors (Mus musculus [4]): 0
- Weight change (Mus musculus [5]): -0.48 g mouse-1
- Weight change (Mus musculus [6]): 0.18 g mouse-1

SMILES: CCCCCCCCCCCCCCCC(=O)OC[C@H](COP(=O)(O)OP(=O)(O)OC[C@H]1O[C@@H](n2ccc(N)nc2=O)[C@@H](O)[C@@H]1O)OC(=O)CCCCCCCCCCCCCCC
- ILS (Mus musculus [7]): >400%
- ILS (Mus musculus [8]): -11%
- ILS (Mus musculus [9]): >400%
- ILS (Mus musculus [10]): >374%
- ILS (Mus musculus [11]): -11%
- No. of survivors (Mus musculus [12]): 4
- No. of survivors (Mus musculus [13]): 5
- Optimal dose (Mus musculus [14]): 133 mg·µM/kg
- No. of survivors (Mus musculus [15]): 0
- No. of survivors (Mus musculus [16]): 0
- No. of survivors (Mus musculus [17]): 5
- Optimal dose (Mus musculus [18]): 300 mg·µM/kg
- Weight change (Mus musculus [19]): -0.53 g mouse-1
- Weight change (Mus musculus [20]): -0.04 g mouse-1
- Weight change (Mus musculus [21]): -2.72 g mouse-1

SMILES: CCCCCCCCCCCCCCCC(=O)OC[C@H](COP(=O)(O)O)OC(=O)CCCCCCCCCCCCCCC.Nc1ccn([C@@H]2O[C@H](COP(=O)(O)O)[C@@H](O)[C@@H]2O)c(=O)n1
- ILS (Mus musculus [22]): 5%
- ILS (Mus musculus [23]): 16%
- No. of survivors (Mus musculus [24]): 0
- No. of survivors (Mus musculus [25]): 0
- Weight change (Mus musculus [26]): -1.08 g mouse-1
- Weight change (Mus musculus [27]): -0.5 g mouse-1

SMILES: CCCCCCCCCCCCCCCC(=O)OC[C@@H](COP(=O)(O)O)OC(=O)CCCCCCCCCCCCCCC.Nc1ccn([C@@H]2O[C@H](COP(=O)(O)O)[C@@H](O)[C@@H]2O)c(=O)n1
- ILS (Mus musculus [28]): 5%
- ILS (Mus musculus [29]): 16%
- No. of survivors (Mus musculus [24]): 0
- No. of survivors (Mus musculus [25]): 0
- Weight change (Mus musculus [30]): -0.82 g mouse-1
- Weight change (Mus musculus [31]): -1.58 g mouse-1

SMILES: CCCCCCCCCCCCCCCC(=O)OCC(COP(=O)(O)OP(=O)(O)OC[C@H]1O[C@@H](n2ccc(N)nc2=O)[C@@H](O)[C@@H]1O)OC(=O)CCCCCCCCCCCCCCC (mixture of isomers)
- ILS (Mus musculus [32]): >400%
- ILS (Mus musculus [33]): 317%
- ILS (Mus musculus [34]): 233%
- Optimal dose (Mus musculus [14]): 100 mg·µM/kg
- No. of survivors (Mus musculus [35]): 2
- No. of survivors (Mus musculus [36]): 4
- Weight change (Mus musculus [37]): -2.92 g mouse-1
- Weight change (Mus musculus [38]): -1.35 g mouse-1
- No. of survivors (Mus musculus [39]): 2
- Weight change (Mus musculus [6]): -2.07 g mouse-1

SMILES: Nc1ccn([C@@H]2O[C@H](CO)[C@@H](O)[C@@H]2O)c(=O)n1 [CYTARABINE]
- ILS (Mus musculus [32]): 17%
- ILS (Mus musculus [33]): 50%
- ILS (Mus musculus [34]): 65%
- ILS (Mus musculus [40]): 82%
- ILS (Mus musculus [41]): 147%
- ILS (Mus musculus [11]): -22% and -11%
- ILS (Mus musculus [42]): -22%
- Optimal dose (Mus musculus [43]): 200 µM/kg
- Optimal dose (Mus musculus [14]): 100 µM/kg
- Optimal dose (Mus musculus [44]): 60 µM/kg
- Optimal dose (Mus musculus [45]): 60 µM/kg
- No. of survivors (Mus musculus [46]): 0
- No. of survivors (Mus musculus [47]): 0
- No. of survivors (Mus musculus [48]): 0
- No. of survivors (Mus musculus [49]): 0
- No. of survivors (Mus musculus [50]): 0
- No. of survivors (Mus musculus [51]): 0
- No. of survivors (Mus musculus [52]): 0
- Optimal dose (Mus musculus [53]): 60 µM/kg
- Optimal dose (Mus musculus [54]): 100 µM/kg and 200 µM/kg and 300 µM/kg
- Weight change (Mus musculus [55]): 2.6 g mouse-1
- Weight change (Mus musculus [56]): 3.6 g mouse-1
- Weight change (Mus musculus [57]): -0.93 g mouse-1
- Weight change (Mus musculus [21]): -0.87 g mouse-1
- Weight change (Mus musculus [58]): -1.8 g mouse-1
